Where two headings read alike, the source gives them in different places.
Target: T1, S. aureus topoisomerase IV (ATPase kit; ParE subunit) (Staphylococcus aureus, UniProt Q5HG65)
T1 construct: purified topoisomerase IV from commercial kit (Inspiralis), C2E2 heterotetramer; with DNA topoisomerase 4 subunit A
Assay: PK/LDH-coupled ATPase assay, A340
Assay type: biochemical
Description: PK/LDH-coupled ATPase assay, A340 on S. aureus topoisomerase IV (ATPase kit; ParE subunit)

T1 sequence (Q2FYS4 whole entry): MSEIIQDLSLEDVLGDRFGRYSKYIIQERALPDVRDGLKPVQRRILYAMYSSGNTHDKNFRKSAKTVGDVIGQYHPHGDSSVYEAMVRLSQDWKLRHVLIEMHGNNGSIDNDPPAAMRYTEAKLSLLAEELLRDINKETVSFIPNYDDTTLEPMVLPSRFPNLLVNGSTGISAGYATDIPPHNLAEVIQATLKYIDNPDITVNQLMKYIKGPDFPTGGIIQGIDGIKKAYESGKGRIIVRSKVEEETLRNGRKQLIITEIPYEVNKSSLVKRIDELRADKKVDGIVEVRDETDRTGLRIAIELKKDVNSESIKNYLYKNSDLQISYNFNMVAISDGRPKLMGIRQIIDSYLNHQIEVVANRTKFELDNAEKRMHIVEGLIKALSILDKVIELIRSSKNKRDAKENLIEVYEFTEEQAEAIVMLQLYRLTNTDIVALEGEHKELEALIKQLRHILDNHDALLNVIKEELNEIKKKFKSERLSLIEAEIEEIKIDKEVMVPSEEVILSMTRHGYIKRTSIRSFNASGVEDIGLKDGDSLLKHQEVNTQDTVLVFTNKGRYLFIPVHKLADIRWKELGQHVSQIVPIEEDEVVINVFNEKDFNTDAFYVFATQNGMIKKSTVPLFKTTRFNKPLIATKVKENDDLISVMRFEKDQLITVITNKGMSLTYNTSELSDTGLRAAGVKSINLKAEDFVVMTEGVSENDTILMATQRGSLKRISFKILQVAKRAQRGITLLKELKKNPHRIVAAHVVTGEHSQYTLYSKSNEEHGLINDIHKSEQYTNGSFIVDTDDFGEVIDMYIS
T1 sequence (Q5HG65 whole entry): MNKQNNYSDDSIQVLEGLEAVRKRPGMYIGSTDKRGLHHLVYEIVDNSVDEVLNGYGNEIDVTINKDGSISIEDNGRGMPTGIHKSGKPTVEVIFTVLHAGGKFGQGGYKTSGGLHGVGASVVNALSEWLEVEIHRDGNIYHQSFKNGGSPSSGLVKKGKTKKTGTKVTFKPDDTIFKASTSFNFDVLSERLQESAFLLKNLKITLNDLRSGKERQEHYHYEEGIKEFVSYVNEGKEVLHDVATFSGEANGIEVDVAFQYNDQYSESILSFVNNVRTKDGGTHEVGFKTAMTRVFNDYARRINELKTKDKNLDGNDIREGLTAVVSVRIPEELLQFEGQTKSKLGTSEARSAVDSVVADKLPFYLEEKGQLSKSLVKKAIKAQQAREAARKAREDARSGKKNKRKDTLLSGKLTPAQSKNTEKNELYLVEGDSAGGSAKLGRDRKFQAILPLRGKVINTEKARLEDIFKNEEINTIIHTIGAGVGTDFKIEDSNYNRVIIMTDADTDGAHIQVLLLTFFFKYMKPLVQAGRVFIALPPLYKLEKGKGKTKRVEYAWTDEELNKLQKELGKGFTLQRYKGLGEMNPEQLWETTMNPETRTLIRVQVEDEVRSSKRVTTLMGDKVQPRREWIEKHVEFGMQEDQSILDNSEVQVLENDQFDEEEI

Compound | inhibition at 20 µM (read-out: 4) | inhibition at 20 µM (read-out: 7)
O=C(NNC(=S)Nc1ccc([N+](=O)[O-])cc1)c1cc2ccccc2[nH]1 [compound 4, 1-(indol-2-oyl)-4-(4-nitrophenyl) thiosemicarbazide] | 55.8 ± 1.59% | –
O=C(NC(=S)NNC(=O)c1cc2ccccc2[nH]1)c1ccccc1 [compound 7, 4-benzoyl-1-(indol-2-oyl) thiosemicarbazide] | – | 49.4 ± 2.27%
